Data on 23 compounds can be found in ChEMBL document CHEMBL4725221, “Thiazoles, Their Benzofused Systems, and Thiazolidinone Derivatives: Versatile and Promising Tools to Combat Antibiotic Resistance” (J Med Chem, 2020).

In brackets after ≈: the same amount, converted by molar mass.

Experiment [1] deals with Escherichia coli. Briefly: Antibacterial activity against Escherichia coli AG102. In kind it is functional.
Experiment [2] relates to Escherichia coli. Briefly: Antibacterial activity against Escherichia coli AG102 in presence of ciprofloxacin. In kind it is functional.
The subject of experiment [3] is Staphylococcus aureus. The experiment can be described thus: Antibacterial activity against Staphylococcus aureus MTCC 121 after 7 days by two-fold serial dilution method. It counts as functional. Particulars: MTCC 121, 168 h, time 7 day.
The test system of experiment [4] is Bacillus subtilis. Briefly: Antibacterial activity against Bacillus subtilis […] after 7 days by two-fold serial dilution method. In kind it is functional. Particulars: 168 h, time 7 day.
Experiment [5] has as its system Escherichia coli. Briefly: Antibacterial activity against Escherichia coli MTCC 40 after 7 days by two-fold serial dilution method. Particulars: MTCC 40, 168 h, time 7 day. It counts as functional.
For experiment [6], the system named is Pseudomonas aeruginosa. Briefly: Antibacterial activity against Pseudomonas aeruginosa MTCC 2453 after 7 days by two-fold serial dilution method. In kind it is functional. Particulars: MTCC 2453, 168 h, time 7 day.
The test system of experiment [7] is Staphylococcus aureus. The experiment can be described thus: Antibacterial activity against Staphylococcus aureus ATCC 25923 by CLSI protocol based microdilution method. It counts as functional, organism-based. (In general: Broth dilution looks for growth in wells or tubes with falling amounts of substance.)

For orientation: MIC means the lowest concentration found to suppress growth. In the case of `Cc1ccc(CC(=O)Nc2ccc(-c3nc4ccccc4s3)cc2)cc1`, the MIC in experiment [1] came to 512 µg/mL (≈ 1430 µM); in experiment [2], 0.004 µg/mL.
In the same order, the values of `COc1ccc(CC(=O)Nc2ccc(-c3nc4ccccc4s3)cc2)cc1` are 256 µg/mL (≈ 684 µM) and 0.008 µg/mL.
`CCc1ccc(C(=O)Nc2ccc(-c3nc4ccccc4s3)cc2)cc1`: the MIC in experiment [1] is 128 µg/mL (≈ 357 µM); in experiment [2] it was 0.016 µg/mL.
Regarding `O=C(Cc1ccc(F)cc1)Nc1ccc(-c2nc3ccccc3s2)cc1`, the minimal inhibitory concentration (MIC) in experiment [1] was determined as 128 µg/mL (≈ 353 µM); in experiment [2], 0.03 µg/mL.
Take `O=C(Nc1ccc(-c2nc3ccccc3s2)cc1)c1ccccc1`: the results for the MIC in experiment [1] and in experiment [2] were 256 µg/mL (≈ 775 µM) and 0.03 µg/mL, respectively.
In the same order, the values of `O=C(Cc1ccccc1)Nc1ccc(-c2nc3ccccc3s2)cc1` are 256 µg/mL (≈ 743 µM) and 0.125 µg/mL.
As for `O=C(CCCCc1ccccc1)Nc1ccc(-c2nc3ccccc3s2)cc1`, the MIC in experiment [1] was 512 µg/mL (≈ 1320 µM); in experiment [2], 0.004 µg/mL.
As for `O=C(Nc1ccc(Cc2nc3ccccc3s2)cc1)c1ccc(F)cc1`, the MIC in experiment [1] was 128 µg/mL (≈ 353 µM); in experiment [2], 0.03 µg/mL.
As to `O=C(NN1C(=O)/C(=C/c2ccccc2)SC1c1cccc(Br)c1)c1ccc(-c2ccccc2)cc1` (stereo unspecified), the MIC in experiment [3] came to 3.12 µg/mL (≈ 5.76 µM); in experiment [4], 3.12 µg/mL (≈ 5.76 µM); in experiment [5] it was 6.25 µg/mL (≈ 11.5 µM); in experiment [6] it was 3.12 µg/mL (≈ 5.76 µM).
As to `O=C(NN1C(=O)/C(=C/c2ccccc2)SC1c1ccccc1)c1ccc(-c2ccccc2)cc1` (stereo unspecified), the MIC in experiment [3] stood at 6.25 µg/mL (≈ 13.5 µM); in experiment [4], 3.12 µg/mL (≈ 6.74 µM); in experiment [5] it was 6.25 µg/mL (≈ 13.5 µM); in experiment [6] it was 6.25 µg/mL (≈ 13.5 µM).
Consider `O=C(NN1C(=O)/C(=C/c2cccc([N+](=O)[O-])c2)SC1c1cccc(Br)c1)c1ccc(-c2ccccc2)cc1` (stereo unspecified), for which the MIC was determined as 1.56 µg/mL (≈ 2.66 µM) in experiment [3], 1.56 µg/mL (≈ 2.66 µM) in experiment [4], 3.12 µg/mL (≈ 5.32 µM) in experiment [5] and 1.56 µg/mL (≈ 2.66 µM) in experiment [6].
Turning to `CCCCOc1ccc(C(=O)Nc2ccc(-c3nc4ccccc4s3)cc2)cc1`, the MIC in experiment [1] was determined as 64 µg/mL (≈ 159 µM); in experiment [2], 0.5 µg/mL.
As to `CCc1ccc(C(=O)Nc2ccc(Cc3nc4ccccc4s3)cc2)cc1`, the results for the MIC in experiment [1] and in experiment [2] were 64 µg/mL (≈ 172 µM) and 0.06 µg/mL, respectively.
`O=C(NN1C(=O)/C(=C/c2ccc(Cl)cc2)SC1c1cccc(Br)c1)c1ccc(-c2ccccc2)cc1` (stereo unspecified): the MIC in experiment [3] is 6.25 µg/mL (≈ 10.9 µM); in experiment [4], 6.25 µg/mL (≈ 10.9 µM); in experiment [5], 12.5 µg/mL (≈ 21.7 µM); in experiment [6], 6.25 µg/mL (≈ 10.9 µM).
For the compound `O=C(Nc1ccc(Cc2nc3ccccc3s2)cc1)c1ccc([N+](=O)[O-])cc1`, the MIC in experiment [1] worked out at 128 µg/mL (≈ 329 µM); in experiment [2], 0.06 µg/mL.
In the case of `O=C(NN1C(=O)/C(=C/c2cccc([N+](=O)[O-])c2)SC1c1ccccc1)c1ccc(-c2ccccc2)cc1` (stereo unspecified), the minimum inhibitory concentration (MIC) in experiment [3] was 3.12 µg/mL (≈ 6.15 µM); in experiment [4], 1.56 µg/mL (≈ 3.07 µM); in experiment [5] it was 6.25 µg/mL (≈ 12.3 µM); in experiment [6], 3.12 µg/mL (≈ 6.15 µM).
A word on the IC50: it is the point on the concentration scale where inhibition reaches its midpoint. A lower IC50 goes with inhibition by little substance. Turning to `COCCn1cc(-c2csc(-c3cn(C)c4ccc(Br)cc34)n2)c2ccccc21`, the midpoint of inhibition in experiment [7], the IC50, lay at 2.5 µg/mL (≈ 5.36 µM).
With `O=C(NN1C(=O)/C(=C/c2ccc(Cl)cc2)SC1c1ccccc1)c1ccc(-c2ccccc2)cc1` (stereo unspecified), the MIC in experiment [3] came out at 3.12 µg/mL (≈ 6.28 µM); in experiment [4], 6.25 µg/mL (≈ 12.6 µM); in experiment [5], 3.12 µg/mL (≈ 6.28 µM); in experiment [6], 12.5 µg/mL (≈ 25.1 µM).
As to `O=C(Nc1ccc(Cc2nc3ccccc3s2)cc1)c1ccccc1`, the MIC worked out at 256 µg/mL (≈ 743 µM) in experiment [1] and 0.016 µg/mL in experiment [2].
In the case of `O=C(Nc1ccc(Cc2nc3ccccc3s2)cc1)c1ccc(Br)cc1`, the minimum inhibitory concentration (MIC) in experiment [1] was 128 µg/mL (≈ 302 µM); in experiment [2], 0.03 µg/mL.
With `COc1cccc(/C=C2\SC(c3ccccc3)N(NC(=O)c3ccc(-c4ccccc4)cc3)C2=O)c1` (stereo unspecified), the minimal inhibitory concentration (MIC) in experiment [3] was 6.25 µg/mL (≈ 12.7 µM); in experiment [4], 1.56 µg/mL (≈ 3.17 µM); in experiment [5] it was 6.25 µg/mL (≈ 12.7 µM); in experiment [6], 6.25 µg/mL (≈ 12.7 µM).
`O=C(NN1C(=O)/C(=C/c2cccc(Br)c2)SC1c1ccccc1)c1ccc(-c2ccccc2)cc1` (stereo unspecified): the MIC came to 3.12 µg/mL (≈ 5.76 µM) in experiment [3], 6.25 µg/mL (≈ 11.5 µM) in experiment [4], 12.5 µg/mL (≈ 23.1 µM) in experiment [5] and 6.25 µg/mL (≈ 11.5 µM) in experiment [6].
With `O=C(Cc1ccc(F)cc1)Nc1ccc(Cc2nc3ccccc3s2)cc1`, the MIC in experiment [1] amounted to 256 µg/mL (≈ 680 µM); in experiment [2], 0.03 µg/mL.
